Results: US20050203191A1, “1-Aminocyclohexane derivatives for the treatment of agitation and other behavioral disorders, especially those associated with alzheimer's disease” (priority 2004, published 2005)

Assays:
[1] = humans; cited from earlier work
[2] = tested on: moderate to severe Alzheimer's patients treated with ongoing donepezil therapy; experiment: MD-02 (Therapy Example 2): 24-week double-blind placebo-controlled trial of memantine added to ongoing donepezil; assay type: in vivo, human; details: MD-02, on donepezil, week 24, ITT LOCF
Method: A 24 week, double-blind, placebo-controlled trial was conducted in moderate to severe Alzheimer's patients (N=404) treated with ongoing donepezil therapy and randomized to memantine or placebo. Behavioral symptoms were assessed using the NPI administered at baseline, Week 12 and the final visit (Week 24). The trial already had established benefits of memantine on functional, cognitive, and global measures. The statistical analysis was based on the ITT population using the last observation carried forward (LOCF) and observed case (OC) approaches.
This study enrolled four hundred and four patients diagnosed with probable AD according to the National Institute of Neurological and Communicative Disorders and Stroke—Alzheimer's Disease and Related Disorders Association (NINCDS-ADRDA) criteria with moderate to severe stages of illness. Inclusion criteria were as follows: Mini-Mental State Examination (MMSE) score of 5-14 at screening and at baseline; minimum age of 50 years; a recent MRI or CT scan consistent with a diagnosis of probable AD; on AChEI therapy, which was defined by the protocol to be donepezil, for more than 6 months prior to entrance into the trial and at a stable dose (5-10 mg/day) for at least 3 months prior to entrance in the trial; a knowledgeable and reliable caregiver to accompany the patient to research visits and oversee the administration of the investigational agent during the trial; residence in the community; ambulatory or ambulatory-aided (i.e. walker or cane) ability; and stable medical condition.
Patients were excluded for clinically significant reasons; B12 or folate deficiency; active pulmonary, gastrointestinal, renal, hepatic, endocrine, or cardiovascular disease; other psychiatric or central nervous system disorders; CT or MRI evidence of clinically significant central nervous system disorders other than probable AD; dementia complicated by other organic disease; or a modified Hachinski Ischemia Score30 greater than 4 at screening.
This was a prospective, randomized, placebo-controlled, parallel-arm, fixed-dose trial in which participants were assigned to double-blind treatment for 24 weeks with a 1-2 week single-blind, placebo lead-in phase prior to randomization. The initial dose of memantine was 5 mg/day with escalation to 20 mg/day over the first 3 weeks of double-blind treatment. All patients were to maintain their protocol-defined AChEI therapy at entry dose for the duration of the study. From week 3 to the end of week 8 of double-blind treatment, transient dosage adjustments for memantine treatment were permitted for patients experiencing dose-limiting adverse events. All memantine-treated patients were required to receive the target dose of 20 mg/day by the end of week 8, and patients not tolerating the target dose at that time were discontinued.
Patients were randomly allocated in permuted blocks of four to one of the two treatment. Blinded study medication was supplied to each study site for dispensation in blister packs at each visit. No unblinding occurred during the trial. Compliance monitoring was conducted via pill counts, and over 95% of both treatment groups had >75% compliance (95% for the placebo/AChEI treatment group and 96.5% for the memantine/AChEI treatment group).
Cognitive, functional, global, and behavioral outcome measures were obtained at screening, baseline, and at the end of weeks 4, 8, 12, 18, and 24. […] The efficacy parameters were the change from baseline on the SIB, a modified ADCS-ADL Inventory score at week 24, and the NPI. The 12-item version of the NPI was used here, with a total score ranging from 0-144. Higher scores reflect greater symptomatology. The NPI was assessed at baseline, at the end of week 12, and at the final visit.
Three populations were considered in the statistical analyses. […]

[3] = NPI total score ≧=75% (top quartile)
[4] = antipsychotics usage “YES” (N = n)
[5] = antipsychotics usage “YES” (N = y)
[6] = baseline NPI agitation score <4
[7] = baseline NPI agitation score ≧=4

## CC12CC3CC(C)(C1)CC(N)(C3)C2 [memantine, 1-amino-3,5-dimethyl adamantane]
[1]
  therapeutically effective circulating concentration: 1 µM
[2]; NPI total score <75%
  ADCS-ADL (change) LS Mean Diff., MEM v. PLA: 1.17
  ADCS-ADL (change) mean: −1.6
  CIBIC-PLUS Raw Mean Diff., MEM v. PLA: −0.2
  CIBIC-PLUS mean: 4.4
  SIB (change) LS Mean Diff., MEM v. PLA: 2.5
  SIB (change) mean: 0.9
[2]; [3]
  ADCS-ADL (change) LS Mean Diff., MEM v. PLA: 1.73
  ADCS-ADL (change) mean: −2.6
  CIBIC-PLUS Raw Mean Diff., MEM v. PLA: −0.3
  CIBIC-PLUS mean: 4.4
  SIB (change) LS Mean Diff., MEM v. PLA: 6.1
  SIB (change) mean: −1.4
[2]; NPI total score ≧=75% (top quartile), listed as MEM
  ADCS-ADL (change) LS Mean Diff., MEM v. PLA: −1.73
[2]; [4]
  ADCS-ADL (change) LS Mean Diff., MEM v. PLA: 0.9
  ADCS-ADL (change) mean: −1.8
  CIBIC-PLUS Raw Mean Diff., MEM v. PLA: −0.08
  CIBIC-PLUS mean: 4.45
  SIB (change) LS Mean Diff., MEM v. PLA: 1.7
  SIB (change) mean: 0.3
[2]; [5]
  ADCS-ADL (change) LS Mean Diff., MEM v. PLA: 3.6
  ADCS-ADL (change) mean: −2.1
  CIBIC-PLUS Raw Mean Diff., MEM v. PLA: −1.18
  CIBIC-PLUS mean: 4.17
  SIB (change) LS Mean Diff., MEM v. PLA: 12.4
  SIB (change) mean: 5.2
[2]; [6]
  ADCS-ADL (change) LS Mean Diff., MEM v. PLA: 1.2
  ADCS-ADL (change) mean: −1.8
  CIBIC-PLUS Raw Mean Diff., MEM v. PLA: −0.3
  CIBIC-PLUS mean: 4.4
  SIB (change) LS Mean Diff., MEM v. PLA: 3.6
  SIB (change) mean: 1.0
[2]; baseline NPI agitation score <4, listed as MEM
  SIB (change) LS Mean Diff., MEM v. PLA: 3.4
[2]; [7]
  ADCS-ADL (change) LS Mean Diff., MEM v. PLA: 2.1
  ADCS-ADL (change) mean: −2.0
  CIBIC-PLUS Raw Mean Diff., MEM v. PLA: −0.1
  SIB (change) LS Mean Diff., MEM v. PLA: 3.8
  SIB (change) mean: 1.1
[2]; overall
  ADCS-ADL (change) LS mean: −2.00
  CIBIC-PLUS LS mean: 4.41
  SIB (change) LS mean: 0.90
[2]; overall, listed as MEM
  ADCS-ADL (change) LS Mean Diff., MEM v. PLA: −1.40
  CIBIC-PLUS Raw Mean Diff., MEM v. PLA: −0.25
  SIB (change) LS Mean Diff., MEM v. PLA: −3.40
